The target in this assay is T1, recombinant 15-PGDH (Homo sapiens, UniProt P15428).
T1 sequence (P15428 1-266): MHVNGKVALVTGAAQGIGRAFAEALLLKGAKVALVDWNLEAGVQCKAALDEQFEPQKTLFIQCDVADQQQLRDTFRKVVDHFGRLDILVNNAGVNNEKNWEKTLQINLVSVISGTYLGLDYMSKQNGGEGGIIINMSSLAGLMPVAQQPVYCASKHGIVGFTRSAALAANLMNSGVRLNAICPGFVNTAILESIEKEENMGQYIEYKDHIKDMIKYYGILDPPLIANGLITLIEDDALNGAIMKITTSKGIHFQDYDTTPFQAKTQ
Type of assay: biochemical. The note with it: recombinant human 15-PGDH, in vitro; read-out: PDGH Assay-IC50.

Some results are limits rather than exact numbers.

Excerpt: The Recombinant 15-PGDH is human unless otherwise specified.

On to `COCC[S+]([O-])c1sc2nc(-c3cnc(N)nc3)cc(C3CC3)c2c1N` (stereo not shown) [Example 110], for which the IC50 was less than 2.5 nM.

As for `COCCC[S@@+]([O-])c1sc2nc(-c3cncnc3)cc(-c3ncccn3)c2c1N` [Example 111], the IC50 is less than 2.5 nM.

As to `COCCC[S@+]([O-])c1sc2nc(-c3cncnc3)cc(-c3ncccn3)c2c1N` [Example 112], the concentration for half-maximal inhibition (IC50) was no less than 10 nM.

`COC(=O)Nc1ncc(-c2cc(-c3ccccn3)c3c(N)c([S+]([O-])C4CCC4)sc3n2)cn1` (stereo not shown) [Example 113]: the IC50 was in the range of 2.5 to 10 nM.

As to `Nc1c([S+]([O-])C2CCC2)sc2nc(-c3cncnc3)cc(-c3ccc(C4COC4)cc3)c12` (stereo not shown) [Example 114], the IC50 was less than 2.5 nM.

`Nc1c([S+]([O-])C2CCC2)sc2nc(-c3cnc(NCCO)nc3)cc(-c3cncc(F)c3)c12` (stereo not shown) [Example 115]: the IC50 was less than 2.5 nM.

Consider `COCCC[S+]([O-])c1sc2nc(-c3cnc4c(cnn4C)c3)cc(-c3ccccc3)c2c1N` (stereo not shown) [Example 116], for which the IC50 lay in the range of 2.5 to 10 nM.

Consider `COC(=O)Nc1ncc(-c2cc(-c3cccnc3)c3c(N)c([S+]([O-])C4CCC4)sc3n2)cn1` (stereo not shown) [Example 117], for which the IC50 is 2.5 to 10 nM.

Take `Nc1c([S+]([O-])C2CCC2)sc2nc(-c3cnc(NCCO)nc3)cc(-c3ccc(F)cn3)c12` (stereo not shown) [Example 118]: the IC50 lay in the range of 2.5 to 10 nM.

Regarding `COCCC[S+]([O-])c1sc2nc(-c3cncnc3)cc(-c3ccnc(C)c3)c2c1N` (stereo not shown) [Example 119], the IC50 is less than 2.5 nM.

Consider `COCC[S+]([O-])c1sc2nc(-c3cnc4c(cnn4C)c3)cc(-c3ccccc3)c2c1N` (stereo not shown) [Example 120], for which the concentration for half-maximal inhibition (IC50) was less than 2.5 nM.

As to `Nc1c([S+]([O-])C2CCC2)sc2nc(-c3cncnc3)cc(-c3ncccc3F)c12` (stereo not shown) [Example 121], the IC50 is less than 2.5 nM.

With `Nc1c([S+]([O-])C2CCC2)sc2nc(-c3cnc(NCCO)nc3)cc(-c3ncccc3F)c12` (stereo not shown) [Example 122], the 50% inhibitory concentration (IC50) was less than 2.5 nM.

As to `COCCC[S+]([O-])c1sc2nc(-c3cnc4nn(C)cc4c3)cc(-c3ccccc3)c2c1N` (stereo not shown) [Example 123], the half-inhibitory concentration (IC50) was less than 2.5 nM.

Regarding `COCC[S+]([O-])c1sc2nc(-c3cnc4nn(C)cc4c3)cc(-c3ccccc3)c2c1N` (stereo not shown) [Example 124], the IC50 was less than 2.5 nM.

Regarding `COCCC[S+]([O-])c1sc2nc(-c3cnc(NCCO)nc3)cc(-c3ccccc3)c2c1N` (stereo not shown) [Example 125], the IC50 is less than 2.5 nM.

For `COCC[S+]([O-])c1sc2nc(-c3cnc(NCCO)nc3)cc(-c3ccccc3)c2c1N` (stereo not shown) [Example 126], the IC50 is less than 2.5 nM.

Take `COCC[S+]([O-])c1sc2nc(-c3cncnc3)cc(-c3ccnc(C)c3)c2c1N` (stereo not shown) [Example 127]: the IC50 was less than 2.5 nM.

Turning to `Nc1c([S+]([O-])C2CCC2)sc2nc(-c3cncnc3)cc(-c3ccc(C4COC4)cn3)c12` (stereo not shown) [Example 128], the IC50 is less than 2.5 nM.

For `Nc1c([S+]([O-])C2CCC2)sc2nc(-c3cnc(C(=O)NCCO)nc3)cc(-c3ccccc3)c12` (stereo not shown) [Example 129], the IC50 is less than 2.5 nM.

`COCC[S+]([O-])c1sc2nc(-c3cncnc3)cc(C(F)(F)F)c2c1N` (stereo not shown) [Example 130]: the IC50 is less than 2.5 nM.

Turning to `COCCC[S+]([O-])c1sc2nc(-c3cncnc3)cc(C(F)(F)F)c2c1N` (stereo not shown) [Example 131], the IC50 was less than 2.5 nM.

For the compound `COCC[S+]([O-])c1sc2nc(-c3cnc(N)nc3)cc(C(F)(F)F)c2c1N` (stereo not shown) [Example 132], the IC50 is less than 2.5 nM.

As for `COCCC[S+]([O-])c1sc2nc(-c3cnc(N)nc3)cc(C(F)(F)F)c2c1N` (stereo not shown) [Example 133], the half-maximal inhibitory concentration (IC50) is less than 2.5 nM.

As for `COCCC[S+]([O-])c1sc2nc(-c3ccc(N)nc3)cc(C(F)(F)F)c2c1N` (stereo not shown) [Example 134], the IC50 was in the range of 2.5 to 10 nM.

On to `COCC[S+]([O-])c1sc2nc(-c3ccc(N)nc3)cc(C(F)(F)F)c2c1N` (stereo not shown) [Example 135], for which the IC50 was in the range of 2.5 to 10 nM.

Take `COCCC[S+]([O-])c1sc2nc(-c3cnc(C)nc3)cc(C(F)(F)F)c2c1N` (stereo not shown) [Example 136]: the IC50 lay in the range of 2.5 to 10 nM.

As for `COCC[S+]([O-])c1sc2nc(-c3cnc(C)nc3)cc(C(F)(F)F)c2c1N` (stereo not shown) [Example 137], the 50% inhibitory concentration (IC50) was less than 2.5 nM.

Consider `Nc1c([S+]([O-])C2CCC2)sc2nc(-c3cnc(NCCO)nc3)cc(C(F)(F)F)c12` (stereo not shown) [Example 138], for which the IC50 lay in the range of 2.5 to 10 nM.

In the case of `COCCC[S+]([O-])c1sc2nc(-c3cnc(NCCO)nc3)cc(C(F)(F)F)c2c1N` (stereo not shown) [Example 139], the IC50 was in the range of 2.5 to 10 nM.

As to `COCC[S+]([O-])c1sc2nc(-c3cnc(NCCO)nc3)cc(C(F)(F)F)c2c1N` (stereo not shown) [Example 140], the IC50 fell in the range of 2.5 to 10 nM.

As for `Nc1c([S+]([O-])C2CCC2)sc2nc(-c3cnc(NCCOCCO)nc3)cc(-c3ccccc3)c12` (stereo not shown) [Example 141], the IC50 is less than 2.5 nM.

Turning to `Nc1c([S+]([O-])C2CCC2)sc2nc(-c3cnc(NCCN4CCS(=O)(=O)CC4)nc3)cc(-c3ccccc3)c12` (stereo not shown) [Example 142], the IC50 was less than 2.5 nM.

For `Nc1ncc(-c2cc(-c3ccc(C4COC4)cc3)c3c(N)c([S+]([O-])C4CCC4)sc3n2)cn1` (stereo not shown) [Example 143], the IC50 was less than 2.5 nM.

Regarding `CN(CCO)c1ncc(-c2cc(-c3ccccc3)c3c(N)c([S+]([O-])C4CCC4)sc3n2)cn1` (stereo not shown) [Example 144], the half-inhibitory concentration (IC50) was less than 2.5 nM.

For `Nc1c([S+]([O-])C2CCC2)sc2nc(-c3cnc(NCCO)nc3)cc(C3CC3)c12` (stereo not shown) [Example 145], the IC50 was less than 2.5 nM.

As for `COCCC[S@@+]([O-])c1sc2nc(-c3cnc(N)nc3)cc(C3CC3)c2c1N` [Example 146], the IC50 was less than 2.5 nM.

As for `Nc1c([S+]([O-])C2CCC2)sc2nc(-c3cncnc3)cc(-c3ccc(C4COC4)nc3)c12` (stereo not shown) [Example 147], the IC50 was less than 2.5 nM.

With `COCC[S@@+]([O-])c1sc2nc(-c3cncnc3)cc(C3CC3)c2c1N` [Example 148], the IC50 is less than 2.5 nM.

As for `COCC[S@+]([O-])c1sc2nc(-c3cncnc3)cc(C3CC3)c2c1N` [Example 149], the IC50 was no less than 10 nM.

For `COCC[S@@+]([O-])c1sc2nc(-c3cnc(N)nc3)cc(C3CC3)c2c1N` [Example 150], the IC50 is less than 2.5 nM.

With `COCC[S@+]([O-])c1sc2nc(-c3cnc(N)nc3)cc(C3CC3)c2c1N` [Example 151], the IC50 is no less than 10 nM.

Take `Nc1c([S+]([O-])C2CCC2)sc2nc(-c3cnc(NCCO)nc3)cc(-c3ccccc3F)c12` (stereo not shown) [Example 152]: the IC50 was less than 2.5 nM.

For `COCCC[S@@+]([O-])c1sc2nc(-c3cncnc3)cc(C3CC3)c2c1N` [Example 153], the IC50 was less than 2.5 nM.

As to `Cc1cc(-c2cc(-c3cncnc3)nc3sc([S+]([O-])C4CCC4)c(N)c23)ccn1` (stereo not shown) [Example 154], the IC50 was less than 2.5 nM.

For the compound `Nc1c([S+]([O-])C2CCC2)sc2nc(-c3cnc(NCC(=O)O)nc3)cc(-c3ccccc3)c12` (stereo not shown) [Example 155], the 50% inhibitory concentration (IC50) is less than 2.5 nM.

For `NCCOCCNc1ncc(-c2cc(-c3ccccc3)c3c(N)c([S+]([O-])C4CCC4)sc3n2)cn1` (stereo not shown) [Example 156], the half-maximal inhibitory concentration (IC50) is less than 2.5 nM.

Turning to `Nc1c([S+]([O-])C2CCC2)sc2nc(-c3cnc(NCCO)nc3)cc(-c3cccc(F)c3)c12` (stereo not shown) [Example 157], the IC50 is less than 2.5 nM.

With `Nc1c([S+]([O-])C2CCC2)sc2nc(-c3cnc(NCCO)nc3)cc(-c3ccc(F)cc3)c12` (stereo not shown) [Example 158], the concentration for half-maximal inhibition (IC50) fell in the range of 2.5 to 10 nM.

Take `Nc1c([S+]([O-])C2CCC2)sc2nc(-c3cnc(NCCO)nc3)cc(-c3ccc(Cl)cc3)c12` (stereo not shown) [Example 159]: the IC50 was less than 2.5 nM.

As for `Nc1c([S+]([O-])C2CCC2)sc2nc(-c3cnc(NCCO)nc3)cc(-c3ccc(C(F)(F)F)cc3)c12` (stereo not shown) [Example 160], the IC50 is 2.5 to 10 nM.

Turning to `COCCC[S+]([O-])c1sc2nc(-c3ccc(=O)n(C)c3)cc(-c3ccccc3)c2c1N` (stereo not shown) [Example 161], the IC50 was less than 2.5 nM.

On to `COCCC[S+]([O-])c1sc2nc(-c3cncnc3)cc(C)c2c1N` (stereo not shown) [Example 163], for which the IC50 was less than 2.5 nM.

Take `Cc1cc(-c2cncnc2)nc2sc([S+]([O-])C3CCC3)c(N)c12` (stereo not shown) [Example 164]: the concentration for half-maximal inhibition (IC50) was less than 2.5 nM.

`CNC(=O)c1ncc(-c2cc(-c3ccccc3)c3c(N)c([S+]([O-])CCCOC)sc3n2)cn1` (stereo not shown) [Example 165]: the IC50 was in the range of 2.5 to 10 nM.

Consider `COCCC[S+]([O-])c1sc2nc(-c3cnc(O)nc3)cc(-c3ccccc3)c2c1N` (stereo not shown) [Example 166], for which the half-inhibitory concentration (IC50) lay in the range of 2.5 to 10 nM.

Turning to `COCC[S+]([O-])c1sc2nc(-c3ccc(=O)[nH]c3)cc(-c3ccccc3)c2c1N` (stereo not shown) [Example 167], the IC50 was less than 2.5 nM.

Turning to `Nc1c([S+]([O-])C2CCC2)sc2nc(-c3cnc(NCCO)nc3)cc(-c3cccc(C(F)(F)F)c3)c12` (stereo not shown) [Example 168], the IC50 lay in the range of 2.5 to 10 nM.

Turning to `Cn1cc(-c2cc(-c3cnc(N)nc3)nc3sc([S+]([O-])C4CCC4)c(N)c23)cn1` (stereo not shown) [Example 169], the IC50 was less than 2.5 nM.

For `COCCC[S@@+]([O-])c1sc2nc(-c3cncnc3)cc(-c3ccnc(C)c3)c2c1N` [Example 170], the IC50 is less than 2.5 nM.

For `COCCC[S+]([O-])c1sc2nc(-c3cnc4c(cnn4C)c3)cc(C3CC3)c2c1N` (stereo not shown) [Example 172], the IC50 fell in the range of 2.5 to 10 nM.

For the compound `COCC[S+]([O-])c1sc2nc(-c3cncnc3)cc(C)c2c1N` (stereo not shown) [Example 173], the IC50 is less than 2.5 nM.

`Nc1c([S+]([O-])C2CCC2)sc2nc(-c3ccc(=O)[nH]c3)cc(-c3ccc(C4COC4)cc3)c12` (stereo not shown) [Example 174]: the IC50 is 2.5 to 10 nM.

With `COCC[S+]([O-])c1sc2nc(-c3cncnc3)cc(-c3ccnn3C)c2c1N` (stereo not shown) [Example 175], the IC50 lay within 2.5 to 10 nM.

Take `COCC[S+]([O-])c1sc2nc(-c3cnc4nn(C)cc4c3)cc(C3CC3)c2c1N` (stereo not shown) [Example 176]: the IC50 is less than 2.5 nM.

As to `CN(CCO)c1ncc(-c2cc(-c3ccccc3)c3c(N)c([S@+]([O-])C4CCC4)sc3n2)cn1` [Example 179], the IC50 is less than 2.5 nM.

On to `CN(CCO)c1ncc(-c2cc(-c3ccccc3)c3c(N)c([S@@+]([O-])C4CCC4)sc3n2)cn1` [Example 180], for which the IC50 is no less than 10 nM.

As a reminder, the IC50 is the concentration that gives 50% inhibition.

Values taken from patent US12336982B2 (RODEO THERAPEUTICS CORPORATION, priority 2018, dated 2025).
